Assay results from BigSolDB 2.1.

CC(=O)O[C@]1(C(C)=O)CC[C@H]2[C@@H]3C=C(Cl)C4=CC(=O)[C@@H]5C[C@@H]5[C@]4(C)[C@H]3CC[C@@]21C
solubility (mole fraction)
Conditions	273.15 K	278.15 K	283.15 K	288.15 K	293.15 K	298.15 K	303.15 K	308.15 K	313.15 K	318.15 K
in MTBE	0.000675	0.000675	0.000676	0.000676	0.000677	0.000677	0.000678	0.000678	0.000679	0.000679
in methanol	0.000229	0.000229	0.000229	0.00023	0.00023	0.00023	0.00023	0.00023	0.00023	0.000231
in water	6.57e-07	8.66e-07	1.16e-06	1.56e-06	2.09e-06	2.79e-06	3.67e-06	4.88e-06	6.36e-06	8.21e-06
